Measured values from patent US20130331442A1, “Combination Therapy for Cancer” (FINVECTOR VISION THERAPIES LTD, priority 2011, published 2013).
Entries after “also recorded” stand apart in the source; their conditions may differ.

Experiments:
[1] = WBC and platelet counts in rats; format: in vivo, rat
BT4C cell line = assay: in vitro cytotoxicity of TMZ on BT4C cell line; format: cell-based
Source text: However, both in vitro and in vivo experiments there were no effect with TMZ therapy alone, implicating that other mechanism of resistance are in operation.
The efficacy of TMZ is known to be affected by different DNA repair activities (Kaina, 2003; Kaina et al., 2007; Parkinson et al., 2008; Takagi et al., 2003; Takagi et al., 2008) and by the presence of functional p53 activity (Blough et al. (2010) J Neurooncol.).

rat glioma model = conditions: TMZ therapy alone, in vivo experiments
Protocol: A study was conducted concerning tumour growth rate in a rat glioma model.

SMILES | WBC counts [1] | platelet counts [1] | cytotoxicity (BT4C cell line; BT4C cells first treated with AdHSV-tk/GCV, TMZ in high concentration) | effect of treatment in vitro (cytotoxicity) (BT4C cell line; BT4C cells, TMZ alone, up to 1000 μM) | effect of therapy in vivo (rat glioma model)
Nc1nc(O)c2ncn(COC(CO)CO)c2n1 [GCV, Ganciclovir] | did not reduce these values significantly | did not reduce these values significantly | – | – | –
Cn1nnc2c(C(N)=O)ncn2c1=O [TMZ, Temozolomide] | profound adverse effect | profound adverse effect | started to demonstrate cytotoxicity | no effect; also recorded: does not respond to the treatment | no effect
